Experimental data from article PMC13130965, “An Integrated Approach Combining Regulatory Tests in tg(cyp19a1b:GFP) Zebrafish Embryos to Assess Toxicity, Developmental Effects, and Estrogenic Activity of Chemicals: A Case Study with Bisphenol A Substitutes” (Environmental Science & Technology, 2026).
Values after ≈ are worked out from the molar mass of the structure shown. Like-named read-outs stand apart in the source and are kept apart here.

Key:
[1] = Refined Fish Embryo Acute Toxicity test (FET, OECD TG 236): mortality; assay type: in vivo, zebrafish (Danio rerio); conditions: tg(cyp19a1b:GFP), zebrafish, in vivo, other: waterborne exposure of embryos in test solution, LC50 (96h) experimental (FET test), nominal, brackets 95% CI
Procedure: (§1) Exposures were carried out in presaturated 24-well plates containing one embryo per well in 2 mL of test solution. The exposure was performed under semistatic conditions, with daily renewal of the test solution. The concentration ranges tested, along with a control with the same percentage of solvent alone, are recapitulated in Table S1. All exposure concentrations are reported as nominal. During the time course of the refined FET tests, embryos were observed after 8 h (coagulation), 24 h (lack of somite formation and nondetachment of the tail), and 48, 72, and 96 h of exposure (nondetection of the heartbeat). […] Moreover, hatching rate and nonlethal developmental effects (i.e., yolk deformity, growth retardation, spontaneous movement, edema, blood tail circulation, heart rate, pigmentation, head and tail/spinal malformations, and hemorrhage) were monitored daily. Tail/spinal malformations included lordosis, kyphosis, scoliosis, and reduced tail length.
(§2) This analysis considered all nonlethal developmental end points monitored in the refined FET assay (see above), except effects on hatching, pigmentation, spontaneous movement, and blood circulation. A teratogenic index (TI) was then calculated as the ratio LC50/EC50.
(§3) Baseline toxicity and experimental FET LC50 values were used to calculate toxic ratios (TR = predicted baseline toxicity LC50/experimental FET LC50). Compounds with TR < 10 were considered as baseline toxicants.

[2] = tested on: tg(cyp19a1b:GFP) zebrafish embryos; experiment: Refined FET: developmental effects / malformations; assay type: in vivo, zebrafish (Danio rerio); conditions: nominal; for EC50: Danio rerio, end of 96 h exposure, read-out: EC50 malformations (cumulative sublethal end points); for LOEC deformity of yolk: at least 10% of embryos affected
Procedure: as §1, §2

[3] = tested on: cyp19a1b:GFP (brain aromatase) in tg(cyp19a1b:GFP) zebrafish embryos; experiment: EASZY assay (OECD TG 250): GFP induction; assay type: in vivo, zebrafish (Danio rerio); conditions: Danio rerio, 96 h, 96 h; for EC50: read-out: EASZY relative EC50, nominal
Procedure: The tests were conducted according to OECD TG 250. Newly fertilized cyp19a1b-GFP eggs were transferred to glass crystallizing dishes and exposed for 96 h in a humidified climate chamber (27 ± 2 °C) under semistatic conditions with a total renewal of the test solutions each day. Each condition consisted of three crystallizing dishes, each containing 7 embryos and 15 mL of test medium. Embryos were exposed to a range of nonlethal concentrations of chemicals as determined previously based on the refined FET assays. The tested concentration ranges of bisphenols, along with a control with the same percentage of solvent alone, are summarized in Table S2. All exposure concentrations are reported as nominal. At the end of exposure, transgenic zebrafish embryos were collected for fluorescence imaging to quantify GFP intensity. At the end of the experiments, all living zebrafish embryos were euthanized as described above. […] ICI was added together with bisphenols from 0 to 4 dpf (days post fertilization). […] In all coexposure experiments, the final DMSO concentration was 0.02% (v/v).
For fluorescence imaging, GFP fold induction was expressed as mean ± SEM, and values were compared to the DMSO control using one-way ANOVA followed by Dunnett’s posthoc test. […]

[4] = tested on: zfERs / cyp19a1b:GFP in tg(cyp19a1b:GFP) zebrafish embryos; experiment: EASZY coexposure with ER antagonist ICI 182,780; assay type: in vivo, zebrafish (Danio rerio); conditions: also with 48 h ICI pre-exposure
Procedure: The tests were conducted according to OECD TG 250. Newly fertilized cyp19a1b-GFP eggs were transferred to glass crystallizing dishes and exposed for 96 h in a humidified climate chamber (27 ± 2 °C) under semistatic conditions with a total renewal of the test solutions each day. Each condition consisted of three crystallizing dishes, each containing 7 embryos and 15 mL of test medium. Embryos were exposed to a range of nonlethal concentrations of chemicals as determined previously based on the refined FET assays. The tested concentration ranges of bisphenols, along with a control with the same percentage of solvent alone, are summarized in Table S2. All exposure concentrations are reported as nominal. At the end of exposure, transgenic zebrafish embryos were collected for fluorescence imaging to quantify GFP intensity. At the end of the experiments, all living zebrafish embryos were euthanized as described above. For coexposure experiments, embryos were exposed to bisphenols in the presence of 1 μM of the ER antagonist ICI 182,780 (ICI). ICI was added together with bisphenols from 0 to 4 dpf (days post fertilization). […] In all coexposure experiments, the final DMSO concentration was 0.02% (v/v).

[5] = target: zebrafish ERβ2 (zfERβ2) (Danio rerio, UniProt Q7ZU32); experiment: ZELH-zfERβ2 luciferase reporter gene assay; assay type: cell-based; conditions: read-out: maximal efficacy
zebrafish ERβ2 (zfERβ2), sequence (Q7ZU32 1-553): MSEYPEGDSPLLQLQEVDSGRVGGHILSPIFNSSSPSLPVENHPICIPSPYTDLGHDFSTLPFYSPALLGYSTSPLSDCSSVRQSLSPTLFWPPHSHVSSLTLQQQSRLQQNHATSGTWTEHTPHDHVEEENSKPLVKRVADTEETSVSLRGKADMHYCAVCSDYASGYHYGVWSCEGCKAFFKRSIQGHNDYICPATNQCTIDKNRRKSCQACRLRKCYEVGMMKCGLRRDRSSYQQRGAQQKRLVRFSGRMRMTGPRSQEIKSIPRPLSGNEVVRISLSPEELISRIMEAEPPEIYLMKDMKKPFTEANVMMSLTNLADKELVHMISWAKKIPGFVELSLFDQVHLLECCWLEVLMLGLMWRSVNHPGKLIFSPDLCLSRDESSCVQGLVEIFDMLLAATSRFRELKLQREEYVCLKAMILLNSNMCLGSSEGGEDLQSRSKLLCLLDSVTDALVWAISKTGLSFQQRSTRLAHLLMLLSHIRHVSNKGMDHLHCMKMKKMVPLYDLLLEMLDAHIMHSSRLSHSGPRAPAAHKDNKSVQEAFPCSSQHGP
Procedure: The ZELH-zfERs reporter cell line was previously established after a two-step stable transfection of the zebrafish hepatic cell line ZFL with the luciferase gene under the control of ERE (yielding the ZELH cell line that expresses no functional ER) and the zebrafish ER subtype β2 (yielding the ZELH-zfERβ2 cell line). Cells were cultured, exposed to chemicals for 72 h, and measured for luciferase activity exactly as previously described. , For each chemical, serial dilutions were prepared in DMSO and tested in three independent experiments. The final DMSO concentration in the culture medium was always 0.1% v/v. All tested concentrations refer to nominal concentrations.

[6] = cited from earlier work
[7] = tested on: hERβ; design: method as in Grimaldi et al.; conditions: HELN-hERβ; ref Grimaldi et al.; cited from earlier work
[8] = tested on: tg(cyp19a1b:GFP) zebrafish embryos; experiment: Refined Fish Embryo Acute Toxicity test (FET, OECD TG 236): mortality; assay type: in vivo, zebrafish (Danio rerio); conditions: nominal, brackets 95% CI
Procedure: as §1, §2, §3

[9] = tested on: Zebrafish embryos; conditions: cited from earlier work
[10] = tested on: Adult Zebrafish; conditions: ref Ren et al. (2017); cited from earlier work
[11] = tested on: hERβ; design: method as in Pelch et al.; conditions: HepG2-hERβ; ref Pelch et al.; cited from earlier work
[12] = 120h-exposure, ref Qiu et al. (2021)
[13] = zebrafish embryos, ref Ren et al. (2017)

Oc1ccc(C(=C(Cl)Cl)c2ccc(O)cc2)cc1 [BPC-Cl, 4-[2,2-dichloro-1-(4-hydroxyphenyl)ethenyl]phenol]
LC50 at 96 h [1]: 4.18 µg/mL (≈ 14.9 µM) | EC50 [2]: 1.28 µg/mL (≈ 4.55 µM) | LOEC edema [2]: 0.99 mg/L | LOEC heart rate disruption [2]: 8.89 mg/L | LOEC hemorrhage [2]: 2.96 mg/L | LOEC no blood tail circulation [2]: 8.89 mg/L | LOEC no spontaneous movement [2]: 2.96 mg/L | LOEC no/Less pigmentation [2]: 8.89 mg/L | LOEC tail/spinal malformations [2]: 8.89 mg/L | LOEC deformity of yolk [2]: 0.99 mg/L | EC50 [3]: 0.015 µg/mL (≈ 0.0534 µM) | effect of ICI 1 μM on bisphenol-induced GFP [4]: unable to block | Emax [5]: 61% | Log Kow ([6]; ref ChemSpider): 4.25 | EC50 [7]: 46 nM | maximal efficacy [7]: 35%

Oc1ccc(Cc2ccc(O)cc2)cc1 [BPF, 4-[(4-hydroxyphenyl)methyl]phenol]
LC50 at 96 h [1]: 35 µg/mL (≈ 175 µM) | LC50 (96h) experimental (FET test) [8]: 35.07 [33.99;35.07] mg/L | EC50 [2]: 17.2 µg/mL (≈ 85.9 µM) | LOEC edema [2]: 15 mg/L | LOEC head malformations [2]: 7.5 mg/L | LOEC heart rate disruption [2]: 60 mg/L | LOEC hemorrhage [2]: 7.5 mg/L | LOEC no blood tail circulation [2]: 60 mg/L | LOEC no spontaneous movement [2]: 60 mg/L | LOEC tail/spinal malformations [2]: 30 mg/L | LOEC deformity of yolk [2]: 15 mg/L | EC50 [3]: 0.407 µg/mL (≈ 2.03 µM) | Emax [5]: 71% | Log Kow ([6]; ref Adamovsky et al.): 2.91 | EC50 [7]: 952 nM | maximal efficacy [7]: 100% | Hatching success EC50(72h) ([9]; 4-days exposure, ref Moreman et al. (2017)): 14 (0.41) mg/L | LOEC (body length, GnRH3 neurons, reproductive neuroendocrine-related genes and hormones) [9, 12]: 100 µg/L | NOEC (body length, GnRH3 neurons, reproductive neuroendocrine-related genes and hormones) [9, 12]: 1 µg/L | NOEC (developmental toxicity) ([9]; Wildtype (AB/TL), 1-6 dpf static + 6-9 dpf semistatic, ref Catron et al. (2018; 2019)): 15.3 µM | LC50(96h) ([9]; Wildtype AB, 120h-exposure, ref Yang et al. (2017)): 10.030 mg/L (≈ 50.1 µM) | mortality ([9]; at 20 mg/L, ref Tišler et al. (2016)): 20% | LC50 ([9]; read-out: LC50(96h), Wildtype AB, 96h-exposure, ref Arrokhman et al. (2023)): 120 µM | Edema EC50(48h) ([9]; ref Tišler et al. (2016)): 10.7 (9.4-12.2) mg/L | Hatching inhibition EC50(72h) ([9]; ref Tišler et al. (2016)): 6.8 (5.8-8.5) mg/L | Pigmentation EC50(48h) ([9]; ref Tišler et al. (2016)): 1.1 (0.92-1.3) mg/L | LC50 (96h) literature ([9]; zebrafish embryos, 95% CI, ref Mu et al.): 19.6 [18.47–20.67] mg/L | LC50 (96h) literature ([9]; zebrafish embryos, parentheses SEM, ref Moreman et al.): 32 (0.55) mg/L | LC50 (96h) literature ([9]; zebrafish embryos, ref Arrokhman et al.): 24 mg/L (≈ 120 µM) | LC50 (96h) literature ([9]; zebrafish embryos, ref Gao et al.): 24.5 mg/L (≈ 122 µM) | LC50 (96h) literature ([9]; zebrafish embryos, ref Gu et al.): 7.40 mg/L (≈ 37 µM) | Body length LOEC [9, 13]: 8 mg/L | Body length NOEC [9, 13]: 6 mg/L | LC50(24h) [9, 13]: 9.13 mg/L (≈ 45.6 µM) | LC50(48h) [9, 13]: 8.93 mg/L (≈ 44.6 µM) | LC50(72h) [9, 13]: 8.56 mg/L (≈ 42.7 µM) | LC50 (96h) literature ([9]; zebrafish embryos, ref Ren et al.): 7.40 mg/L (≈ 37 µM) | LC50(24h) [10]: 10.10 mg/L (≈ 50.4 µM) | LC50(48h) [10]: 9.86 mg/L (≈ 49.2 µM) | LC50(72h) [10]: 9.51 mg/L (≈ 47.5 µM) | LC50(96h) [10]: 9.51 mg/L (≈ 47.5 µM)

C=CCOc1ccc(S(=O)(=O)c2ccc(O)cc2)cc1 [BPS-MAE, 4-(4-prop-2-enoxyphenyl)sulfonylphenol]
LC50 at 96 h [1]: 20.1 µg/mL (≈ 69.1 µM) | EC50 [2]: 6.84 µg/mL (≈ 23.6 µM) | LOEC edema [2]: 33.3 mg/L | LOEC heart rate disruption [2]: 33.3 mg/L | LOEC no blood tail circulation [2]: 33.3 mg/L | LOEC no spontaneous movement [2]: 33.3 mg/L | LOEC no/Less pigmentation [2]: 33.3 mg/L | LOEC tail/spinal malformations [2]: 33.3 mg/L | minimal effective concentration ([3]; read-out: EASZY LOEC (GFP induction), nominal): 0.625 µg/mL | EC50 [3]: 0.327 µg/mL (≈ 1.13 µM) | effect of ICI 1 μM on bisphenol-induced GFP [4]: unable to block | Log Kow ([6]; ref ChemSpider): 3.13 | maximal efficacy [11]: 6%
